Experimental findings from paper PMC12503911, “Cytotoxicity of Atropisomeric [1,1′‐Binaphthalene]‐2,2′‐Diamines (BINAM) and Analogs in Human Cancer Cells: Enantioselectivity, Structure–Activity Relationships, and Mechanism” (Chemmedchem, 2025) are described below.

Experiment [1] concerns the target T1, ASK1 (Homo sapiens, UniProt Q99683).
T1 construct: gene MAP3K5
T1 sequence (Q99683 1-1374): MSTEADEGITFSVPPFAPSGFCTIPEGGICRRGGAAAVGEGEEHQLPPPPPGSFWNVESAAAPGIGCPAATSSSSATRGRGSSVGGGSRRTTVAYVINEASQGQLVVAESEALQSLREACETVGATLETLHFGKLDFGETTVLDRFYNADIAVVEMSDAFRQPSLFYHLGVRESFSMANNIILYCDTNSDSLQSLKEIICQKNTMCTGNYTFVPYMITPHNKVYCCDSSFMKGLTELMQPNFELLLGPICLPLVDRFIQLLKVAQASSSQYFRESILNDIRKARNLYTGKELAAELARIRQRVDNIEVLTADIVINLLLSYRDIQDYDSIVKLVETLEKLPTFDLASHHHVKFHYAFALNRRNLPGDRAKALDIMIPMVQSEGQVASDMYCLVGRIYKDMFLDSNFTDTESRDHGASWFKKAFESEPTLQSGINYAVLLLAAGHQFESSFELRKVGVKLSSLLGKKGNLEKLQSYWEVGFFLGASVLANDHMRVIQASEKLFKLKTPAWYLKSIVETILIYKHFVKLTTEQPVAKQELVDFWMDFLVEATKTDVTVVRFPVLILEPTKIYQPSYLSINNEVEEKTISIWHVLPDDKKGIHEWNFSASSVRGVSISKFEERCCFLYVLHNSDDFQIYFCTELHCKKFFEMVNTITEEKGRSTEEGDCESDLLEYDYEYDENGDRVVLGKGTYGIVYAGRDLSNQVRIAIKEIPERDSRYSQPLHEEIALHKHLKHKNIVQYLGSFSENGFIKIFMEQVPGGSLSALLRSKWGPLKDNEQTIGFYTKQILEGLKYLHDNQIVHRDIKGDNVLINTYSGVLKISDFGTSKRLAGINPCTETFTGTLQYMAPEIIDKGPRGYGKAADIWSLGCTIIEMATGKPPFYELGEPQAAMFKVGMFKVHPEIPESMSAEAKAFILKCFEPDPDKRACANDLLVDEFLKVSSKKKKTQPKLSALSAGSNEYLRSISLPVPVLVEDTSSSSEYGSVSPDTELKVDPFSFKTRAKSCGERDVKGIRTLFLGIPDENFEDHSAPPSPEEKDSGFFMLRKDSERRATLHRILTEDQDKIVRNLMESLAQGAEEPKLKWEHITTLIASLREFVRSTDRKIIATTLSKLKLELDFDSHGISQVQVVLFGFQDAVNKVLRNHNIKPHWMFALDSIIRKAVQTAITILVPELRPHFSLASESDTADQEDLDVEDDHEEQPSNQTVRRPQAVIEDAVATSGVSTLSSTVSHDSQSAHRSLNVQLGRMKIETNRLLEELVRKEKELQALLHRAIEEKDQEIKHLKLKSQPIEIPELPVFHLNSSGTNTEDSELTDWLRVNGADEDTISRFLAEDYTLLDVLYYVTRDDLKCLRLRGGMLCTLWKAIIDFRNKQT
Description: biochemical. Details: 33PanQinase radiometric kinase activity assay, residual activity in % of control, contract lab Reaction Biology. Particulars: mean of intraexperimental duplicates, n = 1; read-out: Residual activities [% of control] / 1(S) 10 µM.

Experiment [2] concerns the target T1, ASK1. Description: […]PanQinase radiometric kinase assay (Reaction Biology). In kind it is biochemical. The following applies: read-out: Residual activities [% of control] / 1(R) 10 μM.
The target of a further experiment is T2, AuroraA (Homo sapiens, UniProt O14965).
T2 construct: gene AURKA
T2 sequence (O14965 1-403): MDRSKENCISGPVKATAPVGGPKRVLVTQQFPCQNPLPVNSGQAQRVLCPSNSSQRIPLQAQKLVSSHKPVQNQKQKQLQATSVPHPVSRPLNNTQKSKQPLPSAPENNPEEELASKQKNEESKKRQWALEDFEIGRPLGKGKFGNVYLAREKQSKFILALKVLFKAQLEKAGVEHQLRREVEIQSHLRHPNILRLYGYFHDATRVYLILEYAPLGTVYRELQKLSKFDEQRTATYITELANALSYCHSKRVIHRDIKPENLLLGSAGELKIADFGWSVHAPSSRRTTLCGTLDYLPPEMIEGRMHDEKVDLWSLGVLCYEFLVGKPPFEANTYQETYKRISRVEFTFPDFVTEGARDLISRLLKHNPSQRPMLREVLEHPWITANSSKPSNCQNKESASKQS
Described as above. It counts as biochemical. Particulars: read-out: Residual activities [% of control] / 1(R) 10 μM.

The next experiment deals with T3, AuroraB (Homo sapiens, UniProt Q96GD4).
T3 construct: gene AURKB
T3 sequence (Q96GD4 whole entry): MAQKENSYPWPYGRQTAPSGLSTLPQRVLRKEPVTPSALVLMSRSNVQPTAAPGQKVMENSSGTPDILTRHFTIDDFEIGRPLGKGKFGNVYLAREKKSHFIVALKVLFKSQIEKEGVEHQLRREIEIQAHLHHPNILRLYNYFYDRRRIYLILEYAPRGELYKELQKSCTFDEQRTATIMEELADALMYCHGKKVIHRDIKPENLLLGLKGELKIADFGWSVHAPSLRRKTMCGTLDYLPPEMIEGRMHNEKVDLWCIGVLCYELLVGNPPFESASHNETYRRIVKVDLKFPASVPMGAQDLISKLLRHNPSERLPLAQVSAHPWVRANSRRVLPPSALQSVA
Description: biochemical. Details: 33PanQinase radiometric kinase activity assay, residual activity in % of control, contract lab Reaction Biology. Particulars: mean of intraexperimental duplicates, n = 1; read-out: Residual activities [% of control] / 1(R) 10 µM.

For another experiment, the target named is LIMK1 (Homo sapiens, UniProt P53667). Put plainly: biochemical. The following applies: mean of intraexperimental duplicates, n = 1; read-out: Residual activities [% of control] / 1(R) 10 µM. Details: 33PanQinase radiometric kinase activity assay, residual activity in % of control, contract lab Reaction Biology.
LIMK1, sequence (P53667 whole entry): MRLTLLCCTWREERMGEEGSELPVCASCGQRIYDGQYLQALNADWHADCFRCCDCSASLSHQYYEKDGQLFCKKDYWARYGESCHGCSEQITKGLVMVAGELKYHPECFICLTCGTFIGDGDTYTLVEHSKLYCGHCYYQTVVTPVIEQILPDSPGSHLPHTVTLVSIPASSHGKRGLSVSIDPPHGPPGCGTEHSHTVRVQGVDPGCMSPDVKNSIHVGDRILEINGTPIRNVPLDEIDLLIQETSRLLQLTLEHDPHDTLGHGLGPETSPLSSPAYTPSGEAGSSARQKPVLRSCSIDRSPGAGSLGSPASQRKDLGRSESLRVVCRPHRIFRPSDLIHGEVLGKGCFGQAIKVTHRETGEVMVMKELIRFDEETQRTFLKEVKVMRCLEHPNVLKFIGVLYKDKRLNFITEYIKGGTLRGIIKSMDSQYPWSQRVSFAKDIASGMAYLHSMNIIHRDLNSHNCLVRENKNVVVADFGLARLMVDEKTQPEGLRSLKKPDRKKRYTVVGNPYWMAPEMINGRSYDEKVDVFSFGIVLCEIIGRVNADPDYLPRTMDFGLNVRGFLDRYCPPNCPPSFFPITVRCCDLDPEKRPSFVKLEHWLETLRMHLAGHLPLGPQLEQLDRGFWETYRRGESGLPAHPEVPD

Molecules are shown by their SMILES.

Take `Nc1ccc2ccccc2c1-c1c(N)ccc2ccccc12` [1(S), S‐BINAM]: on ASK1 [1], the remaining activity at 10 µM was 117%.
With `Nc1ccc2ccccc2c1-c1c(N)ccc2ccccc12` [1(R), (R)‐[1,1′‐binaphthalene]‐2,2′‐diamine], the remaining activity at 10 µM at ASK1 [2] was 90%; on AuroraA it was 86%; at AuroraB, 101%; on LIMK1 it was 103%.
